From US7521478B2, “Total synthesis of myriaporones” (Pharma Mar, S.A.U., priority 2002, dated 2009)

Assays:
Assay type in all cases: cell-based
LoVo = test: Inhibition of cell growth by colorimetric SRB assay, LOVO; conditions: Homo sapiens, LOVO, 48 hours exposure; for LC50: cell killing, read-out: LC50; for IC (total growth inhibition): read-out: TGI
Outline: (§1)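 Absorbance of solubilized bound SRB (490 nm) quantified cell growth and viability after cells were exposed to compound for 48 h. Seeding was 5×10^3 cells per well in RPMI 1640/10% FBS, with 18 h attachment beforehand. GI, TGI and LC were calculated from means of triplicate wells.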

DU-145 = test: Inhibition of cell growth by colorimetric SRB assay, DU-145; conditions: Homo sapiens, DU-145, 48 hours exposure; for CC50: cell killing, read-out: LC50 (the source's name); for IC (total growth inhibition): read-out: TGI
Outline: as §1

LoVo-Dox = test: Inhibition of cell growth by colorimetric SRB assay, LOVO-DOX; conditions: Homo sapiens, LOVO-DOX, 48 hours exposure; for LC50 (concentration for 50% cell killing): read-out: LC50; for IC (total growth inhibition): read-out: TGI
Outline: as §1

IGROV = test: Inhibition of cell growth by colorimetric SRB assay, IGROV; conditions: Homo sapiens, 48 hours exposure; for CC50: cell killing, read-out: LC50 (the source's name); for IC (total growth inhibition): read-out: TGI
Outline: as §1

PANC-1 = test: Inhibition of cell growth by colorimetric SRB assay, PANC-1; conditions: Homo sapiens, PANC-1, 48 hours exposure; for CC50: cell killing, read-out: LC50 (the source's name); for IC (total growth inhibition): read-out: TGI
Outline: as §1

SK-BR-3 = test: Inhibition of cell growth by colorimetric SRB assay, SK-BR-3; conditions: SK-BR-3, 48 hours exposure; for GI50 / CC50: Homo sapiens; for CC50: cell killing, read-out: LC50 (the source's name); for TGI: total growth inhibition
Outline: as §1

HT-29 = test: Inhibition of cell growth by colorimetric SRB assay, HT-29; conditions: Homo sapiens, HT-29, 48 hours exposure; for CC50: cell killing, read-out: LC50 (the source's name); for IC (total growth inhibition): read-out: TGI
Outline: as §1

K-562 = test: Inhibition of cell growth by colorimetric SRB assay, K-562; conditions: Homo sapiens, K562, K-562, 48 hours exposure; for CC50: cell killing, read-out: LC50 (the source's name); for IC (total growth inhibition): read-out: TGI
Outline: as §1

SK-MEL-28 = test: Inhibition of cell growth by colorimetric SRB assay, MEL-28; conditions: Homo sapiens, SK-MEL-28, MEL-28, 48 hours exposure; for CC50: cell killing, read-out: LC50 (the source's name); for IC (total growth inhibition): read-out: TGI
Outline: as §1

A-549 = test: Inhibition of cell growth by colorimetric SRB assay, A-549; conditions: Homo sapiens, A549, A-549, 48 hours exposure; for CC50: cell killing, read-out: LC50 (the source's name); for IC (total growth inhibition): read-out: TGI
Outline: as §1

LNCaP = test: Inhibition of cell growth by colorimetric SRB assay, LN-caP; conditions: Homo sapiens, LN-caP, 48 hours exposure; for CC50: cell killing, read-out: LC50 (the source's name); for IC (total growth inhibition): read-out: TGI
Outline: as §1

IGROV-ET = test: Inhibition of cell growth by colorimetric SRB assay, IGROV-ET; conditions: Homo sapiens, IGROV-ET, 48 hours exposure; for CC50: cell killing, read-out: LC50 (the source's name); for IC (total growth inhibition): read-out: TGI
Outline: as §1

HeLa-APL = test: Inhibition of cell growth by colorimetric SRB assay, HELA-APL; conditions: Homo sapiens, HELA-APL, 48 hours exposure; for CC50: cell killing, read-out: LC50 (the source's name)
Outline: as §1

HeLa = test: Inhibition of cell growth by colorimetric SRB assay, HELA; conditions: Homo sapiens, HELA, 48 hours exposure; for CC50: cell killing, read-out: LC50 (the source's name); for IC (total growth inhibition): read-out: TGI
Outline: as §1

## C/C=C\[C@H](C)[C@H]1O[C@@]1(C)[C@@H](O)[C@@H](CO)C(=O)[C@H](CO)[C@@H](O)CC(=O)CC [3a + 4a]
LoVo
  GI50: 0.0822 µM
  LC50: 17.7 µM
  IC (total growth inhibition): 1.35 µM
DU-145
  GI50: 0.0631 µM
  CC50: 2.03 µM
  IC (total growth inhibition): 0.403 µM
LoVo-Dox
  GI50: 0.152 µM
  LC50 (concentration for 50% cell killing): 26.8 µM
  IC (total growth inhibition): 1.36 µM
IGROV
  GI50: 0.073 µM
  CC50: 3.92 µM
  IC (total growth inhibition): 0.376 µM
PANC-1
  GI50: 0.0897 µM
  CC50: 26.8 µM
  IC (total growth inhibition): 2.95 µM
SK-BR-3
  GI50: 0.0303 µM
  CC50: 5.34 µM
  TGI: 4.75E−07 Molar
HT-29
  GI50: 0.0601 µM
  CC50: 26.8 µM
  IC (total growth inhibition): 1.18 µM
K-562
  GI50: 0.521 µM
  CC50: 8.4 µM
  IC (total growth inhibition): 1.46 µM
SK-MEL-28
  GI50: 0.0754 µM
  CC50: 12 µM
  IC (total growth inhibition): 0.832 µM
A-549
  GI50: 0.144 µM
  CC50: 15.6 µM
  IC (total growth inhibition): 2.59 µM
LNCaP
  GI50: 0.0819 µM
  CC50: 5.32 µM
  IC (total growth inhibition): 0.553 µM
IGROV-ET
  GI50: 0.1 µM
  CC50: 26.8 µM
  IC (total growth inhibition): 1.07 µM
HeLa-APL
  CC50: 14.7 µM
HeLa-APL; read-out: GI50
  GI50: 73.3 nM
HeLa-APL; total growth inhibition, read-out: TGI
  IC (total growth inhibition): 0.983 µM
HeLa
  GI50: 0.0728 µM
  CC50: 7.14 µM
  IC (total growth inhibition): 0.55 µM

## C/C=C\[C@H](C)[C@H]1OC1(C)[C@@H](O[Si](C)(C)C(C)(C)C)[C@@H](CO[Si](C)(C)C(C)(C)C)C(=O)[C@H](CO[Si](C)(C)C(C)(C)C)[C@@H](CC(=O)CC)O[Si](C)(C)C(C)(C)C (stereo partly shown) [Compound 19b]
LoVo
  GI50: 12 µM
  LC50: 12 µM
  IC (total growth inhibition): 12 µM
DU-145
  GI50: 12 µM
  CC50: 12 µM
  IC (total growth inhibition): 12 µM
LoVo-Dox
  GI50: 12 µM
  LC50 (concentration for 50% cell killing): 12 µM
  IC (total growth inhibition): 12 µM
IGROV
  GI50: 12 µM
  CC50: 12 µM
  IC (total growth inhibition): 12 µM
PANC-1
  GI50: 12 µM
  CC50: 12 µM
  IC (total growth inhibition): 12 µM
SK-BR-3
  GI50: 6.15 µM
  CC50: 12 µM
  TGI: 1.17E−05 Molar
HT-29
  GI50: 12 µM
  CC50: 12 µM
  IC (total growth inhibition): 12 µM
K-562
  GI50: 12 µM
  CC50: 12 µM
  IC (total growth inhibition): 12 µM
SK-MEL-28
  GI50: 12 µM
  CC50: 12 µM
  IC (total growth inhibition): 12 µM
A-549
  GI50: 12 µM
  CC50: 12 µM
  IC (total growth inhibition): 12 µM
LNCaP
  GI50: 12 µM
  CC50: 12 µM
  IC (total growth inhibition): 12 µM
IGROV-ET
  GI50: 12 µM
  CC50: 12 µM
  IC (total growth inhibition): 12 µM
HeLa-APL
  CC50: 12 µM
HeLa
  GI50: 12 µM
  CC50: 12 µM
  IC (total growth inhibition): 12 µM
